Reference: patent publication US12319672B2, “Alpha-D-galactopyranoside derivatives” (Idorsia Pharmaceuticals Ltd, priority 2019, dated 2025)

Experiments:
[1] = target: human Gal-3 (hGal-3) (Homo sapiens (Human), UniProt P17931); assay: Competitive binding assay: binding of biotinylated hGal-3 to microplate-adsorbed asialofetuin (ASF); conditions: Activity on hGal-3; mean values of several measurements
Procedure, shortened: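 Spectrophotometric readout (streptavidin-peroxidase, ABTS) of biotinylated galectin retained on ASF-coated wells. Biotinylated hGal-1 or hGal-3, 300-1000 ng/mL, co-incubated with test compound 3 h at 4° C, then washed. Mean IC50 from repeat runs.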

[2] = target: human Gal-1 (hGal-1); assay: Competitive binding assay: binding of biotinylated hGal-1 to microplate-adsorbed asialofetuin (ASF); conditions: Activities on hGal-1; mean values of several measurements
Chain of human Gal-1 (hGal-1) (P09382 2-135 limits assumed): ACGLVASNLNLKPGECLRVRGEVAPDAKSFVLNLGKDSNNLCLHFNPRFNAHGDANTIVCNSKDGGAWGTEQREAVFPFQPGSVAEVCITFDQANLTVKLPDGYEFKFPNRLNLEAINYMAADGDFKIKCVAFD
Procedure, shortened: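 For hGal-1, a variant with all six cysteines replaced by serines is preferred. Either galectin, biotinylated at 300-1000 ng/mL, competes with compound for microplate-bound ASF over 3 h at 4° C; peroxidase/ABTS detection gives IC50, averaged.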

Chain of human Gal-3 (hGal-3) (P17931 whole entry): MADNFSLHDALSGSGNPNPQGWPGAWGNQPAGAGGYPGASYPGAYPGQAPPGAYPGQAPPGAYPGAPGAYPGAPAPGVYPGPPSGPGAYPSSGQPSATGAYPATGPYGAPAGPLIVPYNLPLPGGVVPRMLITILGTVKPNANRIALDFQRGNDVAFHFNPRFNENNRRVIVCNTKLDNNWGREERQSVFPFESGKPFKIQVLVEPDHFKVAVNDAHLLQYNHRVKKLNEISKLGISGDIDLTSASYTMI

SMILES: CO[C@@H]1[C@@H](n2cc(-c3ccc(C)c(F)c3F)nn2)[C@@H](O)[C@@H](CO)O[C@@H]1Cc1cc(C(O)(c2ccccn2)C2CC2)on1 (some centres unmarked) [Ex 1.317]
- IC50 [1]: 0.31 µM
- IC50 [2]: 9.69 µM

SMILES: CO[C@@H]1[C@@H](n2cc(-c3ccc(C)c(F)c3F)nn2)[C@@H](O)[C@@H](CO)O[C@@H]1Cc1cc(C(C)(O)c2ccccc2)on1 (some centres unmarked) [Ex 1.318]
- IC50 [1]: 0.16 µM
- IC50 [2]: 8.87 µM

SMILES: CO[C@@H]1[C@@H](n2cc(-c3ccc(C)c(F)c3F)nn2)[C@@H](O)[C@@H](CO)O[C@@H]1Cc1cc(C2(O)CC2)on1 [Ex 1.319]
- IC50 [1]: 0.14 µM
- IC50 [2]: 7.16 µM

SMILES: CO[C@@H]1[C@@H](n2cc(-c3ccc(C)c(F)c3F)nn2)[C@@H](O)[C@@H](CO)O[C@@H]1Cc1cc(C2(C)COC2)on1 [Ex 1.320]
- IC50 [1]: 0.075 µM
- IC50 [2]: 2.62 µM

SMILES: CO[C@@H]1[C@@H](n2cc(-c3ccc(C)c(F)c3F)nn2)[C@@H](O)[C@@H](CO)O[C@@H]1Cc1cc(C(C)(O)c2ccccc2F)on1 (some centres unmarked) [Ex 1.321]
- IC50 [1]: 0.4 µM
- IC50 [2]: 9.17 µM

SMILES: CO[C@@H]1[C@@H](n2cc(-c3ccc(C)c(F)c3F)nn2)[C@@H](O)[C@@H](CO)O[C@@H]1Cc1cc(C2(Oc3cncc(Br)c3)COC2)on1 [Ex 1.322]
- IC50 [1]: 0.31 µM
- IC50 [2]: > 100 µM

SMILES: CCC(O)(CC)c1cc(C[C@H]2O[C@H](CO)[C@H](O)[C@H](n3cc(-c4ccc(C)c(F)c4F)nn3)[C@H]2OC)no1 [Ex 1.323]
- IC50 [1]: 0.62 µM
- IC50 [2]: 5.08 µM

SMILES: CO[C@@H]1[C@@H](n2cc(-c3ccc(C)c(F)c3F)nn2)[C@@H](O)[C@@H](CO)O[C@@H]1Cc1cc(C2(CO)CC2)on1 [Ex 1.324]
- IC50 [1]: 0.14 µM
- IC50 [2]: 3.57 µM

SMILES: CCOC(=O)N1CCC(C)(c2cc(C[C@H]3O[C@H](CO)[C@H](O)[C@H](n4cc(-c5ccc(C)c(F)c5F)nn4)[C@H]3OC)on2)CC1 [Ex 1.325]
- IC50 [1]: 0.017 µM
- IC50 [2]: 0.6 µM

SMILES: CO[C@@H]1[C@@H](n2cc(-c3ccc(C)c(F)c3F)nn2)[C@@H](O)[C@@H](CO)O[C@@H]1Cc1cc(C2(O)CCCC2)no1 [Ex 1.326]
- IC50 [1]: 0.057 µM
- IC50 [2]: 2.87 µM

SMILES: CCOC(C)(C)c1cc(C[C@H]2O[C@H](CO)[C@H](O)[C@H](n3cc(-c4ccc(C)c(F)c4F)nn3)[C@H]2OC)on1 [Ex 1.327]
- IC50 [1]: 0.076 µM
- IC50 [2]: 4.17 µM

SMILES: COc1ccc(-c2cn([C@H]3[C@@H](O)[C@@H](CO)O[C@H](CC4CC(C5CCN(C(=O)OC(C)(C)C)CC5)=NO4)[C@@H]3OC)nn2)c(F)c1F (some centres unmarked) [Ex 1.328]
- IC50 [1]: 0.077 µM
- IC50 [2]: 0.96 µM

SMILES: CO[C@@H]1[C@@H](n2cc(-c3cccc(F)c3F)nn2)[C@@H](O)[C@@H](CO)O[C@@H]1CC1CC(C2CCN(C(=O)OC(C)(C)C)CC2)=NO1 (some centres unmarked) [Ex 1.329]
- IC50 [1]: 0.069 µM
- IC50 [2]: 0.44 µM

SMILES: COCC(C)(C)c1cc(C[C@H]2O[C@H](CO)[C@H](O)[C@H](n3cc(-c4ccc(C)c(F)c4F)nn3)[C@H]2OC)on1 [Ex 1.330]
- IC50 [1]: 0.061 µM
- IC50 [2]: 4.36 µM

SMILES: CO[C@@H]1[C@@H](n2cc(-c3ccc(C)c(F)c3F)nn2)[C@@H](O)[C@@H](CO)O[C@@H]1Cc1cc(C(C)(C)CNC(=O)OC(C)(C)C)no1 [Ex 1.331]
- IC50 [1]: 0.058 µM
- IC50 [2]: 1.99 µM

SMILES: CO[C@@H]1[C@@H](n2cc(-c3ccc(C)c(F)c3F)nn2)[C@@H](O)[C@@H](CO)O[C@@H]1Cc1cc(C2(CC#N)CC2)no1 [Ex 1.332]
- IC50 [1]: 0.043 µM
- IC50 [2]: 0.98 µM

SMILES: Cc1ccc(-c2cn([C@H]3[C@@H](O)[C@@H](CO)O[C@H](Cc4cc(C5(C)CC5)no4)[C@@H]3O)nn2)c(F)c1F [Ex 1.333]
- IC50 [1]: 0.01 µM
- IC50 [2]: 6.99 µM

SMILES: Cc1ccc(-c2cn([C@H]3[C@@H](O)[C@@H](CO)O[C@H](Cc4cc(C(C)(C)CO)no4)[C@@H]3O)nn2)c(F)c1F [Ex 1.334]
- IC50 [1]: 0.024 µM
- IC50 [2]: 3.31 µM

SMILES: Cc1ccc(-c2cn([C@H]3[C@@H](O)[C@@H](CO)O[C@H](Cc4cc(C5(C)COC5)no4)[C@@H]3O)nn2)c(F)c1F [Ex 1.335]
- IC50 [1]: 0.026 µM
- IC50 [2]: 3.78 µM

SMILES: CO[C@@H]1[C@@H](n2cc(-c3ccc(C)c(F)c3F)nn2)[C@@H](O)[C@@H](CO)O[C@@H]1Cc1cc(C(C)(C)CN)no1 [Ex 1.336]
- IC50 [1]: 0.023 µM
- IC50 [2]: 1.88 µM

SMILES: CO[C@@H]1[C@@H](n2cc(-c3cc(F)c(F)c(F)c3)nn2)[C@@H](O)[C@@H](CO)O[C@@H]1Cc1cc(C2CCNC(=O)CC2)no1 (some centres unmarked) [Ex 1.337]
- IC50 [1]: 0.055 µM
- IC50 [2]: 0.42 µM

SMILES: CO[C@@H]1[C@@H](n2cc(-c3ccc(C#N)c(F)c3F)nn2)[C@@H](O)[C@@H](CO)O[C@@H]1Cc1cc(C(C)(C)C)no1 [Ex 1.338]
- IC50 [1]: 0.15 µM
- IC50 [2]: 1.98 µM

SMILES: CO[C@@H]1[C@@H](n2cc(-c3ccc(C)c(F)c3F)nn2)[C@@H](O)[C@@H](CO)O[C@@H]1Cc1cc(C(C)(O)c2ccccc2)on1 (some centres unmarked) [Ex 1.339]
- IC50 [1]: 0.28 µM
- IC50 [2]: 10 µM

SMILES: CO[C@@H]1[C@@H](n2cc(-c3ccc(C)c(F)c3F)nn2)[C@@H](O)[C@@H](CO)O[C@@H]1Cc1cc(C(C)(O)c2ccccc2)on1 (some centres unmarked) [Ex 1.340]
- IC50 [1]: 0.33 µM
- IC50 [2]: 10.4 µM

SMILES: CO[C@@H]1[C@@H](n2cc(-c3ccc(C)c(F)c3F)nn2)[C@@H](O)[C@@H](CO)O[C@@H]1Cc1cc(C(C)c2ccccc2)no1 (some centres unmarked) [Ex 1.342]
- IC50 [1]: 0.55 µM
- IC50 [2]: 33 µM

SMILES: CO[C@@H]1[C@@H](n2cc(-c3ccc(C)c(F)c3F)nn2)[C@@H](O)[C@@H](CO)O[C@@H]1Cc1cc([C@@H]2CC[C@H]2O)on1 [Ex 1.343]
- IC50 [1]: 0.093 µM
- IC50 [2]: 9.19 µM

SMILES: CC(=O)O[C@@H]1[C@@H](n2cc(-c3ccc(C)c(F)c3F)nn2)[C@@H](O)[C@@H](CO)O[C@@H]1Cc1cc([C@@H]2CCC[C@H]2O)on1 [Ex 1.344]
- IC50 [1]: 0.04 µM
- IC50 [2]: 17 µM

SMILES: CO[C@@H]1[C@@H](n2cc(-c3ccc(C)c(F)c3F)nn2)[C@@H](O)[C@@H](CO)O[C@@H]1Cc1cc(C2CCC(=O)N(C)CC2)no1 (some centres unmarked) [Ex 1.345]
- IC50 [1]: 0.044 µM
- IC50 [2]: 0.72 µM

SMILES: CO[C@@H]1[C@@H](n2cc(-c3ccc(C)c(F)c3F)nn2)[C@@H](O)[C@@H](CO)O[C@@H]1Cc1cc(C2CCC2O)on1 (some centres unmarked) [Ex 1.346]
- IC50 [1]: 0.1 µM
- IC50 [2]: 11.7 µM

SMILES: CO[C@@H]1[C@@H](n2cc(-c3ccc(C)c(F)c3F)nn2)[C@@H](O)[C@@H](CO)O[C@@H]1Cc1cc(C2CCC2O)on1 (some centres unmarked) [Ex 1.347]
- IC50 [1]: 0.11 µM
- IC50 [2]: 8.21 µM

SMILES: CO[C@@H]1[C@@H](n2cc(-c3ccc(C)c(F)c3F)nn2)[C@@H](O)[C@@H](CO)O[C@@H]1Cc1cc(C2CCNC(=O)CC2)no1 (some centres unmarked) [Ex 1.348]
- IC50 [1]: 0.068 µM
- IC50 [2]: 0.25 µM

SMILES: CO[C@@H]1[C@@H](n2cc(-c3ccc(C)c(F)c3F)nn2)[C@@H](O)[C@@H](CO)O[C@@H]1Cc1cc([C@H]2C[C@H]2O)on1 [Ex 1.349]
- IC50 [1]: 0.18 µM
- IC50 [2]: 7.02 µM

SMILES: CO[C@@H]1[C@@H](n2cc(-c3ccc(C)c(F)c3F)nn2)[C@@H](O)[C@@H](CO)O[C@@H]1Cc1cc([C@@H]2C[C@H]2O)on1 [Ex 1.350]
- IC50 [1]: 0.27 µM
- IC50 [2]: 6.78 µM

SMILES: CO[C@@H]1[C@@H](n2cc(-c3cccc(F)c3F)nn2)[C@@H](O)[C@@H](CO)O[C@@H]1Cc1cc(C(C)(C)C)on1 [Ex 1.351]
- IC50 [1]: 0.18 µM
- IC50 [2]: 1.05 µM

SMILES: COc1ccc(-c2cn([C@H]3[C@@H](O)[C@@H](CO)O[C@H](Cc4cc(C(C)(C)C)on4)[C@@H]3OC)nn2)c(F)c1F [Ex 1.352]
- IC50 [1]: 0.1 µM
- IC50 [2]: 1.17 µM

SMILES: COc1ccc(-c2cc(C[C@H]3O[C@H](CO)[C@H](O)[C@H](n4cc(-c5cc(F)c(F)c(F)c5)nn4)[C@H]3O)on2)cc1 [Example 2.01, (2R,3R,4R,5R,6R)-2-(hydroxymethyl)-6-((3-(4-methoxyphenyl)isoxazol-5-yl)methyl)-4-(4-(3,4,5-trifluorophenyl)-1H-1,2,3-triazol-1-yl)tetrahydro-2H-pyran-3,5-diol]
- IC50 [1]: 0.84 µM
- IC50 [2]: 8.36 µM

SMILES: O=c1cc(C2=NO[C@@H](C[C@H]3O[C@H](CO)[C@H](O)[C@H](n4cc(-c5cc(F)c(F)c(F)c5)nn4)[C@H]3O)C2)cc[nH]1 [Example 2.04, 4-((R)-5-(((2R,3R,4R,5R,6R)-3,5-dihydroxy-6-(hydroxymethyl)-4-(4-(3,4,5-trifluorophenyl)-1H-1,2,3-triazol-1-yl)tetrahydro-2H-pyran-2-yl)methyl)-4,5-dihydroisoxazol-3-yl)pyridin-2(1H)-one]
- IC50 [1]: 0.91 µM
- IC50 [2]: 12.3 µM

SMILES: O=c1cc(C2=NO[C@H](C[C@H]3O[C@H](CO)[C@H](O)[C@H](n4cc(-c5cc(F)c(F)c(F)c5)nn4)[C@H]3O)C2)cc[nH]1 [Example 2.05, 4-((S)-5-(((2R,3R,4R,5R,6R)-3,5-dihydroxy-6-(hydroxymethyl)-4-(4-(3,4,5-trifluorophenyl)-1H-1,2,3-triazol-1-yl)tetrahydro-2H-pyran-2-yl)methyl)-4,5-dihydroisoxazol-3-yl)pyridin-2(1H)-one]
- IC50 [1]: 0.19 µM
- IC50 [2]: 0.39 µM

SMILES: CO[C@@H]1[C@@H](n2cc(-c3cc(F)c(F)c(F)c3)nn2)[C@@H](O)[C@@H](CO)O[C@@H]1C[C@@H]1CC(c2cc[nH]c(=O)c2)=NO1 [Example 2.07a, 4-((S)-5-(((2R,3R,4S,5R,6R)-5-hydroxy-6-(hydroxymethyl)-3-methoxy-4-(4-(3,4,5-trifluorophenyl)-1H-1,2,3-triazol-1-yl)tetrahydro-2H-pyran-2-yl)methyl)-4,5-dihydroisoxazol-3-yl)pyridin-2(1H)-one]
- IC50 [1]: 0.26 µM
- IC50 [2]: 0.31 µM

SMILES: CO[C@@H]1[C@@H](n2cc(-c3cc(F)c(F)c(F)c3)nn2)[C@@H](O)[C@@H](CO)O[C@@H]1C[C@H]1CC(c2cc[nH]c(=O)c2)=NO1 [Example 2.07b, 4-((R)-5-(((2R,3R,4S,5R,6R)-5-hydroxy-6-(hydroxymethyl)-3-methoxy-4-(4-(3,4,5-trifluorophenyl)-1H-1,2,3-triazol-1-yl)tetrahydro-2H-pyran-2-yl)methyl)-4,5-dihydroisoxazol-3-yl)pyridin-2(1H)-one]
- IC50 [1]: 1.7 µM
- IC50 [2]: 11.7 µM
